Assay [1] in a line: Inhibition of HIV1 HXB2 gp160-mediated cell-cell fusion between viral envelope expressing human HL2/3 cells to human TZM-bl cells expressing CD4, tat, and rev by luciferase reporter gene assay. The assay is classed as cell-based. To be noted: Human immunodeficiency virus 1, HXB2, TZM-bl. (In general: Reporter assays use an easily measured gene product as a stand-in for the process of interest.)

The test system of the next assay is TZM-bl. The experiment in a line: Inhibition of HIV1 HXB2 gp160-mediated cell-cell fusion between viral envelope expressing human HL2/3 cells to human TZM-bl cells expressing CD4, tat, and rev by luciferase reporter gene assay relative to C29. The assay is classed as cell-based. The note with it: Human immunodeficiency virus 1.

Here are results for nine molecules from ChEMBL document CHEMBL2412996, “Increase of anti-HIV activity of C-peptide fusion inhibitors using a bivalent drug design approach” (Bioorg Med Chem Lett, 2013).

For orientation: IC50 means the concentration at which inhibition is half-maximal. A high value points to weaker potency in that assay.

Numbered stars: 1 amine (or outer) side, 2 acyl side, 3 side chain; on linkers, the order of the positions; unused ones are H or OH. Square brackets hold non-standard residues; d marks the D form. Peptide text beside a SMILES is read from it. * marks the point of attachment. X2 = CC(=O)N[C@@H](CS)C(=O)OCCOCCOCCN([C@@H](Cc1c[nH]c2ccccc12)C(=O)[*:2])[*:1]; X1 = CC(=O)N[C@@H](CS)C(=O)OCCOCCOCCNCCC(=O)*; Ahx = NCCCCCC(=O)O; βAla = NCCC(=O)O

Take `CC[C@H](C)[C@H](NC(=O)[C@H](CC(C)C)NC(=O)[C@H](CCC(=O)O)NC(=O)[C@H](CCC(=O)O)NC(=O)[C@@H](NC(=O)[C@H](CCCCN)NC(=O)[C@H](CCCCN)NC(=O)[C@@H](NC(=O)[C@H](Cc1ccc(O)cc1)NC(=O)[C@H](CCC(=O)O)NC(=O)[C@H](CCC(=O)O)NC(=O)[C@@H](NC(=O)[C@H](CCCCN)NC(=O)[C@H](CCCCN)NC(=O)[C@H](CC(=O)O)NC(=O)[C@H](Cc1c[nH]c2ccccc12)NC(=O)[C@H](CCC(=O)O)NC(=O)[C@H](CCC(=O)O)NC(=O)[C@H](Cc1c[nH]c2ccccc12)NC(C)=O)[C@@H](C)CC)[C@@H](C)O)[C@@H](C)CC)C(=O)N[C@@H](CCCCN)C(=O)N[C@@H](CCCCN)C(=O)N[C@@H](CO)C(=O)O` (Ac-WEEWDKKIEEYTKKIEELIKKS-OH): the IC50 in assay [1] stood at 345 nM. For `CC[C@H](C)[C@H](NC(=O)[C@H](CC(C)C)NC(=O)[C@H](CO)NC(=O)[C@H](Cc1cnc[nH]1)NC(=O)[C@@H](NC(=O)[C@H](CC(C)C)NC(=O)[C@H](CO)NC(=O)[C@@H](NC(=O)[C@H](Cc1ccc(O)cc1)NC(=O)[C@H](CC(N)=O)NC(=O)[C@H](CC(N)=O)NC(=O)[C@@H](NC(=O)[C@H](CCC(=O)O)NC(=O)[C@H](CCCNC(=N)N)NC(=O)[C@H](CC(=O)O)NC(=O)[C@H](Cc1c[nH]c2ccccc12)NC(=O)[C@H](CCC(=O)O)NC(=O)[C@H](CCSC)NC(=O)[C@H](Cc1c[nH]c2ccccc12)NC(=O)CCCCCNC(=O)[C@H](CS)NC(C)=O)[C@@H](C)CC)[C@@H](C)O)[C@@H](C)CC)C(=O)N[C@@H](CCC(=O)O)C(=O)N[C@@H](CCC(=O)O)C(=O)N[C@@H](CO)C(=O)N[C@@H](CCC(N)=O)C(=O)N[C@@H](CC(N)=O)C(=O)N[C@@H](CCC(N)=O)C(=O)N[C@@H](CCC(N)=O)C(=O)N[C@@H](CCC(=O)O)C(=O)N[C@@H](CCCCN)C(=O)N[C@@H](CC(N)=O)C(=O)O` (Ac-C[Ahx]WMEWDREINNYTSLIHSLIEESQNQQEKN-OH), the Ratio in the assay on TZM-bl stood at 2.41. For the same molecule, the IC50 in assay [1] amounted to 49 nM. For `CC[C@H](C)[C@H](NC(=O)[C@H](CC(C)C)NC(=O)[C@H](CO)NC(=O)[C@H](Cc1cnc[nH]1)NC(=O)[C@@H](NC(=O)[C@H](CC(C)C)NC(=O)[C@H](CO)NC(=O)[C@@H](NC(=O)[C@H](Cc1ccc(O)cc1)NC(=O)[C@H](CC(N)=O)NC(=O)[C@H](CC(N)=O)NC(=O)[C@@H](NC(=O)[C@H](CCC(=O)O)NC(=O)[C@H](CCCNC(=N)N)NC(=O)[C@H](CC(=O)O)NC(=O)[C@H](Cc1c[nH]c2ccccc12)NC(=O)[C@H](CCC(=O)O)NC(=O)[C@H](CCSC)NC(=O)[C@H](Cc1c[nH]c2ccccc12)NC(=O)[C@H](CS)NC(C)=O)[C@@H](C)CC)[C@@H](C)O)[C@@H](C)CC)C(=O)N[C@@H](CCC(=O)O)C(=O)N[C@@H](CCC(=O)O)C(=O)N[C@@H](CO)C(=O)N[C@@H](CCC(N)=O)C(=O)N[C@@H](CC(N)=O)C(=O)N[C@@H](CCC(N)=O)C(=O)N[C@@H](CCC(N)=O)C(=O)N[C@@H](CCC(=O)O)C(=O)N[C@@H](CCCCN)C(=O)N[C@@H](CC(N)=O)C(=O)O` (Ac-CWMEWDREINNYTSLIHSLIEESQNQQEKN-OH), in that order: 2.84 and 41.6 nM. On to `CC[C@H](C)[C@H](NC(=O)[C@H](CC(C)C)NC(=O)[C@H](CO)NC(=O)[C@H](Cc1cnc[nH]1)NC(=O)[C@@H](NC(=O)[C@H](CC(C)C)NC(=O)[C@H](CO)NC(=O)[C@@H](NC(=O)[C@H](Cc1ccc(O)cc1)NC(=O)[C@H](CC(N)=O)NC(=O)[C@H](CC(N)=O)NC(=O)[C@@H](NC(=O)[C@H](CCC(=O)O)NC(=O)[C@H](CCCNC(=N)N)NC(=O)[C@H](CC(=O)O)NC(=O)[C@H](Cc1c[nH]c2ccccc12)NC(=O)[C@H](CCC(=O)O)NC(=O)[C@H](CCSC)NC(=O)[C@H](Cc1c[nH]c2ccccc12)NCCOCCOCCOC(=O)[C@H](CS)NC(C)=O)[C@@H](C)CC)[C@@H](C)O)[C@@H](C)CC)C(=O)N[C@@H](CCC(=O)O)C(=O)N[C@@H](CCC(=O)O)C(=O)N[C@@H](CO)C(=O)N[C@@H](CCC(N)=O)C(=O)N[C@@H](CC(N)=O)C(=O)N[C@@H](CCC(N)=O)C(=O)N[C@@H](CCC(N)=O)C(=O)N[C@@H](CCC(=O)O)C(=O)N[C@@H](CCCCN)C(=O)N[C@@H](CC(N)=O)C(=O)O` (H-[X2]MEWDREINNYTSLIHSLIEESQNQQEKN-OH), for which, in the assay on TZM-bl, the Ratio worked out at 7.69. Moreover, half-maximal inhibition in assay [1] (IC50) was put at 15.4 nM. In assay [1], `CC[C@H](C)[C@H](NC(=O)[C@H](CC(C)C)NC(=O)[C@H](CO)NC(=O)[C@H](Cc1cnc[nH]1)NC(=O)[C@@H](NC(=O)[C@H](CC(C)C)NC(=O)[C@H](CO)NC(=O)[C@@H](NC(=O)[C@H](Cc1ccc(O)cc1)NC(=O)[C@H](CC(N)=O)NC(=O)[C@H](CC(N)=O)NC(=O)[C@@H](NC(=O)[C@H](CCC(=O)O)NC(=O)[C@H](CCCNC(=N)N)NC(=O)[C@H](CC(=O)O)NC(=O)[C@H](Cc1c[nH]c2ccccc12)NC(=O)[C@H](CCC(=O)O)NC(=O)[C@H](CCSC)NC(=O)[C@H](Cc1c[nH]c2ccccc12)NC(C)=O)[C@@H](C)CC)[C@@H](C)O)[C@@H](C)CC)C(=O)N[C@@H](CCC(=O)O)C(=O)N[C@@H](CCC(=O)O)C(=O)N[C@@H](CO)C(=O)O` (Ac-WMEWDREINNYTSLIHSLIEES-OH) registered an IC50 of 1240 nM.

As for `CC[C@H](C)[C@H](NC(=O)[C@H](CC(C)C)NC(=O)[C@H](CO)NC(=O)[C@H](Cc1cnc[nH]1)NC(=O)[C@@H](NC(=O)[C@H](CC(C)C)NC(=O)[C@H](CO)NC(=O)[C@@H](NC(=O)[C@H](Cc1ccc(O)cc1)NC(=O)[C@H](CC(N)=O)NC(=O)[C@H](CC(N)=O)NC(=O)[C@@H](NC(=O)[C@H](CCC(=O)O)NC(=O)[C@H](CCCNC(=N)N)NC(=O)[C@H](CC(=O)O)NC(=O)[C@H](Cc1c[nH]c2ccccc12)NC(=O)[C@H](CCC(=O)O)NC(=O)[C@H](CCSC)NC(=O)[C@H](Cc1c[nH]c2ccccc12)NC(=O)CCNC(=O)[C@H](CS)NC(C)=O)[C@@H](C)CC)[C@@H](C)O)[C@@H](C)CC)C(=O)N[C@@H](CCC(=O)O)C(=O)N[C@@H](CCC(=O)O)C(=O)N[C@@H](CO)C(=O)N[C@@H](CCC(N)=O)C(=O)N[C@@H](CC(N)=O)C(=O)N[C@@H](CCC(N)=O)C(=O)N[C@@H](CCC(N)=O)C(=O)N[C@@H](CCC(=O)O)C(=O)N[C@@H](CCCCN)C(=O)N[C@@H](CC(N)=O)C(=O)O` (Ac-C[βAla]WMEWDREINNYTSLIHSLIEESQNQQEKN-OH), the Ratio with TZM-bl was determined as 6.01. In assay [1], this molecule returned an IC50 of 19.7 nM. Turning to `CC[C@H](C)[C@H](NC(=O)[C@H](CC(C)C)NC(=O)[C@H](CO)NC(=O)[C@H](Cc1cnc[nH]1)NC(=O)[C@@H](NC(=O)[C@H](CC(C)C)NC(=O)[C@H](CO)NC(=O)[C@@H](NC(=O)[C@H](Cc1ccc(O)cc1)NC(=O)[C@H](CC(N)=O)NC(=O)[C@H](CC(N)=O)NC(=O)[C@@H](NC(=O)[C@H](CCC(=O)O)NC(=O)[C@H](CCCNC(=N)N)NC(=O)[C@H](CC(=O)O)NC(=O)[C@H](Cc1c[nH]c2ccccc12)NC(=O)[C@H](CCC(=O)O)NC(=O)[C@H](CCSC)NC(=O)[C@H](Cc1c[nH]c2ccccc12)NC(C)=O)[C@@H](C)CC)[C@@H](C)O)[C@@H](C)CC)C(=O)N[C@@H](CCC(=O)O)C(=O)N[C@@H](CCC(=O)O)C(=O)N[C@@H](CO)C(=O)N[C@@H](CCC(N)=O)C(=O)N[C@@H](CC(N)=O)C(=O)N[C@@H](CCC(N)=O)C(=O)N[C@@H](CCC(N)=O)C(=O)N[C@@H](CCC(=O)O)C(=O)N[C@@H](CCCCN)C(=O)N[C@@H](CC(N)=O)C(=O)NCCCCCC(=O)N[C@@H](CS)C(=O)O` (Ac-WMEWDREINNYTSLIHSLIEESQNQQEKN[Ahx]C-OH), in the assay on TZM-bl, the Ratio came to 0.58. The molecule further yielded an IC50 in assay [1] of 203 nM. In the case of `CC[C@H](C)[C@H](NC(=O)[C@H](CC(C)C)NC(=O)[C@H](CO)NC(=O)[C@H](Cc1cnc[nH]1)NC(=O)[C@@H](NC(=O)[C@H](CC(C)C)NC(=O)[C@H](CO)NC(=O)[C@@H](NC(=O)[C@H](Cc1ccc(O)cc1)NC(=O)[C@H](CC(N)=O)NC(=O)[C@H](CC(N)=O)NC(=O)[C@@H](NC(=O)[C@H](CCC(=O)O)NC(=O)[C@H](CCCNC(=N)N)NC(=O)[C@H](CC(=O)O)NC(=O)[C@H](Cc1c[nH]c2ccccc12)NC(=O)[C@H](CCC(=O)O)NC(=O)[C@H](CCSC)NC(=O)[C@H](Cc1c[nH]c2ccccc12)NC(=O)CCNCCOCCOCCOC(=O)[C@H](CS)NC(C)=O)[C@@H](C)CC)[C@@H](C)O)[C@@H](C)CC)C(=O)N[C@@H](CCC(=O)O)C(=O)N[C@@H](CCC(=O)O)C(=O)N[C@@H](CO)C(=O)N[C@@H](CCC(N)=O)C(=O)N[C@@H](CC(N)=O)C(=O)N[C@@H](CCC(N)=O)C(=O)N[C@@H](CCC(N)=O)C(=O)N[C@@H](CCC(=O)O)C(=O)N[C@@H](CCCCN)C(=O)N[C@@H](CC(N)=O)C(=O)O` (X1-WMEWDREINNYTSLIHSLIEESQNQQEKN-OH), the Ratio in the assay on TZM-bl was determined as 8.08. Further, in assay [1], inhibition was half-maximal at 14.7 nM (IC50). In turn, `CC[C@H](C)[C@H](NC(=O)[C@H](CC(C)C)NC(=O)[C@H](CO)NC(=O)[C@H](Cc1cnc[nH]1)NC(=O)[C@@H](NC(=O)[C@H](CC(C)C)NC(=O)[C@H](CO)NC(=O)[C@@H](NC(=O)[C@H](Cc1ccc(O)cc1)NC(=O)[C@H](CC(N)=O)NC(=O)[C@H](CC(N)=O)NC(=O)[C@@H](NC(=O)[C@H](CCC(=O)O)NC(=O)[C@H](CCCNC(=N)N)NC(=O)[C@H](CC(=O)O)NC(=O)[C@H](Cc1c[nH]c2ccccc12)NC(=O)[C@H](CCC(=O)O)NC(=O)[C@H](CCSC)NC(=O)[C@H](Cc1c[nH]c2ccccc12)NC(C)=O)[C@@H](C)CC)[C@@H](C)O)[C@@H](C)CC)C(=O)N[C@@H](CCC(=O)O)C(=O)N[C@@H](CCC(=O)O)C(=O)N[C@@H](CO)C(=O)N[C@@H](CCC(N)=O)C(=O)N[C@@H](CC(N)=O)C(=O)N[C@@H](CCC(N)=O)C(=O)N[C@@H](CCC(N)=O)C(=O)N[C@@H](CCC(=O)O)C(=O)N[C@@H](CCCCN)C(=O)N[C@@H](CC(N)=O)C(=O)O` (Ac-WMEWDREINNYTSLIHSLIEESQNQQEKN-OH) yielded an IC50 in assay [1] of 118 nM.
